Values quoted from earlier work, collected in patent US11471445B2, “Compositions for the prevention and treatment of acute renal injury” (AKI Therapeutics ApS, priority 2017, dated 2022).

How the values were obtained:
IRI = conditions: in vivo
hepatic IRI = conditions: rats, pretreatment
[1] = system: cerebral ischemia-reperfusion injury; conditions: mice
rat heart = conditions: pretreatment
[2] = 30 min after intravenous injection

Question: With `COc1ccc([C@@H]2CC(=O)c3c(O)cc(O[C@@H]4O[C@H](CO[C@@H]5O[C@@H](C)[C@H](O)[C@@H](O)[C@H]5O)[C@@H](O)[C@H](O)[C@H]4O)cc3O2)cc1O` [Hesperidin, hesperidin] as the molecule, how does the “effect on IRI / ischemia” value (IRI) read?
Answer: The value was “protective effects on IRI in various organs”.

Question: With `CC(C)[C@]12O[C@H]1[C@@H]1O[C@]13[C@]1(O[C@H]1C[C@H]1C4=C(CC[C@@]13C)C(=O)OC4)[C@@H]2O` [Triptolide] as the molecule, how does the water solubility read?
Answer: The water solubility was “very low water solubility”.

Question: For `COc1ccc(-c2cc(=O)c3c(O)cc(O[C@@H]4O[C@H](CO[C@@H]5O[C@@H](C)[C@H](O)[C@@H](O)[C@H]5O)[C@@H](O)[C@H](O)[C@H]4O)cc3o2)cc1O` [diosmin], which “consequences of hepatic IRI” value (hepatic IRI) is on record?
Answer: The value was “ameliorates the consequences of IRI”.

Question: And the “effect on cerebral ischemia-reperfusion injury” value [1]?
Answer: Its value is “ameliorates the consequences of IRI”.

Question: And the “consequences of IRI in ex vivo rat heart” value (rat heart)?
Answer: The value was “ameliorates the consequences of IRI”.

Question: For “triptolide-lysozyme conjugate: Triptolide conjugated to lysozyme by an ester linkage with a succinic acid spacer”, which “renal concentration of conjugate relative to equivalent dose of drug” value [2] is on record?
Answer: Its value is 20 fold.

Question: Which “effect on IRI / ischemia” value (IRI) does the source give for β-escin here?
Answer: The value was “ameliorates the effects of focal cerebral ischemia”.
